In ChEMBL document CHEMBL5120879, “Medicinal Chemistry Strategies for the Development of Bruton's Tyrosine Kinase Inhibitors against Resistance” (J Med Chem, 2022):

Experiments:
[1] = target: Protein cereblon/Tyrosine-protein kinase BTK (Homo sapiens, UniProt Q06187+Q96SW2); experiment: PROTAC activity at CRBN/BTK (unknown origin) assessed as BTK degradation; assay type: protein assay
[2] = target: T1, Tyrosine-protein kinase BTK (Homo sapiens, UniProt Q06187); experiment: Induction of degradation of BTK in human Ramos cells at 10 nM relative to control; assay type: cell-based
[3] = target: T1, Tyrosine-protein kinase BTK; experiment: Induction of degradation of BTK in human Ramos cells at 100 nM relative to control; assay type: cell-based
[4] = Inhibition of cell proliferation in human HBL1 cells harboring Ibrutinib-resistant BTK C481S mutant assessed as cell growth inhibition; assay type: functional
[5] = target: T1, Tyrosine-protein kinase BTK; experiment: Inhibition of wild-type BTK (unknown origin)
[6] = target: T2, Tyrosine-protein kinase BTK (Homo sapiens, UniProt Q06187, C481S); experiment: Inhibition of BTK C481S mutant (unknown origin)
[7] = target: T2, Tyrosine-protein kinase BTK; experiment: Induction of degradation of Ibrutinib-resistant BTK C481S mutant (unknown origin)
[8] = target: von Hippel-Lindau disease tumor suppressor/Tyrosine-protein kinase BTK (Homo sapiens, UniProt Q06187+P40337); experiment: PROTAC activity at VHL/BTK (unknown origin) assessed as induction of BTK degradation; assay type: protein assay
[9] = target: T1, Tyrosine-protein kinase BTK; experiment: Inhibition of BTK (unknown origin)
[10] = Inhibition of BTK C481Y mutant (unknown origin); design: species or system Homo sapiens
[11] = Intrinsic clearance in mouse; assay type: ADME, organism-based; conditions: in vivo

T1 sequence (Q06187 whole entry): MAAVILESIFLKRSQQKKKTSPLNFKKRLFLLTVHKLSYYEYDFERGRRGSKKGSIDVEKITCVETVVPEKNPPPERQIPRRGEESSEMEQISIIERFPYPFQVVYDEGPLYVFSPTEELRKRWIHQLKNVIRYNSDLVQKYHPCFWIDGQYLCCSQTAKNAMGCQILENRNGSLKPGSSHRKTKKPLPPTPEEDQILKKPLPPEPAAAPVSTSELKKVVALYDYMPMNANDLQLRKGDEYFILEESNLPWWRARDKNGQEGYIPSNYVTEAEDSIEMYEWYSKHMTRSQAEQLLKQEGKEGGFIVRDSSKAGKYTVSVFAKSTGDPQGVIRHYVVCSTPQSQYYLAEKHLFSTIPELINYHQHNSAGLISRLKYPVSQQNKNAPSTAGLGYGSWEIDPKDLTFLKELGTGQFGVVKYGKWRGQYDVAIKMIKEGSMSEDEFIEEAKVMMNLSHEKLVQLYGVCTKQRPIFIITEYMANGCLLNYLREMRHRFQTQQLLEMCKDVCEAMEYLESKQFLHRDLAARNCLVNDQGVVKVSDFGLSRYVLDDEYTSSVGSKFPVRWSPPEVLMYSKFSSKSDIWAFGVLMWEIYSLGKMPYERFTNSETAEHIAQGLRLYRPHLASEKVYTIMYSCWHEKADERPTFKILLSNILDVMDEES
Chain of Protein cereblon/Tyrosine-protein kinase BTK (Q06187 whole entry): as above
Chain of Protein cereblon/Tyrosine-protein kinase BTK (Q96SW2 whole entry): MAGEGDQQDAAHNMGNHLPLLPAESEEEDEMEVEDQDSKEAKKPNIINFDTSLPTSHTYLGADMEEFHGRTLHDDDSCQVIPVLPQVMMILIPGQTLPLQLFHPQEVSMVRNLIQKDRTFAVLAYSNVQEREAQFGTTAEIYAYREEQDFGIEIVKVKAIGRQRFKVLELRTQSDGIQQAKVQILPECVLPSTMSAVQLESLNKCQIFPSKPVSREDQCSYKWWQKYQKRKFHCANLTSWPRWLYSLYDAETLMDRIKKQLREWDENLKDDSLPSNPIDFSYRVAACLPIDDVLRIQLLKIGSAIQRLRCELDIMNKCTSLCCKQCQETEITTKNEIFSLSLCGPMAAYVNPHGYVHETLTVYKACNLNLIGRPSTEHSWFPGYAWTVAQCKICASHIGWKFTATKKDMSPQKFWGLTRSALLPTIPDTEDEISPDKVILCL
T2 sequence (Q06187 2-659 C481S limits assumed): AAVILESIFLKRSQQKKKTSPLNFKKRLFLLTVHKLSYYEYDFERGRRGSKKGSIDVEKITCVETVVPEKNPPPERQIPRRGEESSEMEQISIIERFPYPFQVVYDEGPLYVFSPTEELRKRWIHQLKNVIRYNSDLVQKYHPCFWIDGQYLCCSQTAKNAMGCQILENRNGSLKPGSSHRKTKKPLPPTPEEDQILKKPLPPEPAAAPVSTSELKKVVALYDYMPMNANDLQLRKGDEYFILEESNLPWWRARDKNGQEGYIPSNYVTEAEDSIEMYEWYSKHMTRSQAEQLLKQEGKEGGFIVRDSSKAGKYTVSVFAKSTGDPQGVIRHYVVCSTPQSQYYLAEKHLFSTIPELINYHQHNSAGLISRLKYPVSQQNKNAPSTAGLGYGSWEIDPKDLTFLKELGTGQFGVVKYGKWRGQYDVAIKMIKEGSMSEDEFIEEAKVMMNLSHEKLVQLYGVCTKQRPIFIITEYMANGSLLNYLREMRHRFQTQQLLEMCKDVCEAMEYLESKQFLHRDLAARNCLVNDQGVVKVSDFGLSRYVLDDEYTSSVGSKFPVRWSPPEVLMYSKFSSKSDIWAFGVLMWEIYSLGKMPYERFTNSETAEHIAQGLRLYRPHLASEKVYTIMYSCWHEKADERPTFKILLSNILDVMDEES
Chain of von Hippel-Lindau disease tumor suppressor/Tyrosine-protein kinase BTK (Q06187 whole entry): as the sequence (Q06187 whole entry) above
Chain of von Hippel-Lindau disease tumor suppressor/Tyrosine-protein kinase BTK (P40337 whole entry): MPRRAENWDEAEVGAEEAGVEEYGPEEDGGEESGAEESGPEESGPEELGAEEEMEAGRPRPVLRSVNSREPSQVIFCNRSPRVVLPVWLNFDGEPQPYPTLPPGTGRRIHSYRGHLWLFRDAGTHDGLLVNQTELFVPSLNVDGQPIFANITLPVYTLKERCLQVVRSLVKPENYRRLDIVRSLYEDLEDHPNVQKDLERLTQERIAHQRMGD

## Nc1ncnc2c1c(-c1ccc(Oc3ccccc3)cc1)nn2[C@@H]1CCCN(C(=O)c2cn(CCOCCOCCOCCNc3cccc4c3C(=O)N(C3CCC(=O)NC3=O)C4=O)nn2)C1 (stereo partly drawn)
[1]
  DC50: 6.3 nM
[2]
  Activity: 73%
[3]
  Activity: 89%
[4]
  GI50: 28 nM

## O=C(c1ccc(Oc2ccccc2)cc1Cl)c1c[nH]c2ncnc(N[C@H]3CCC[C@H](CO)O3)c12
[5]
  IC50: 0.85 nM
[6]
  IC50: 0.39 nM

## COc1cc(Nc2c(C#N)cnc3cc(OCCCN4CCN(CCOCCOCCNc5cccc6c5C(=O)N(C5CCC(=O)NC5=O)C6=O)CC4)c(OC)cc23)c(Cl)cc1Cl (stereo not drawn)
[7]
  DC50: 30 nM

## Nc1ncnc2c1c(-c1ccc(Oc3ccccc3)cc1)nn2C1CCN(CCOCCOCCOc2ccc3c(c2)CN(C2CCC(=O)NC2=O)C3=O)CC1 (stereo not drawn)
[8]
  DC50: 7.9 nM

## Cc1cc(C(N)=O)c2[nH]c3cc(C(C)(C)O)ccc3c2c1-c1cccc(-n2c(=O)[nH]c3c(F)cccc3c2=O)c1O
[9]
  IC50: 0.3 nM

## Nc1nccn2c([C@@H]3CC[C@H]4CN(CCO)CC(=O)N4C3)nc(-c3ccc(C(=O)Nc4cc(C(F)(F)F)ccn4)cc3)c12
[10]
  IC50: 0.1 nM

## Nc1ncnc2c1c(-c1ccc(Oc3ccccc3)cc1)nn2C1CCN(CCOCCOCC(=O)Nc2ccc3c(c2)C(=O)N(C2CCC(=O)NC2=O)C3=O)CC1 (stereo not drawn)
[11]
  CLint scaled: 1660 mL/min/kg

## Nc1ncnc2c1c(-c1ccc(Oc3ccccc3)cc1)nn2[C@@H]1CCCN(Cc2cn(CCOCCOCCOCCNc3cccc4c3CN(C3CCC(=O)NC3=O)C4=O)nn2)C1 (stereo partly drawn)
[1]
  DC50: 29 nM
[4]
  GI50: 30 nM
